This note sets out measurements from US11111247B2, “Pyrazolopyrimidine compounds and uses thereof” (Incyte Corporation, priority 2018, dated 2021).

Read-outs that look alike come from different tables or passages of the source. Where only a bound is given, the exact number is not on record here.

In one assay the target is FGFR3 (UP) (Homo sapiens (Human), UniProt P22607). Nature of the assay: FGFR Enzymatic Assay, FGFR3 un-phosphorylated.
A further assay has as its target FGFR2 (UP) (Homo sapiens (Human), UniProt P21802). Nature of the assay: FGFR Enzymatic Assay, FGFR2 un-phosphorylated.
For a further assay, the target named is ALK2 (Homo sapiens (Human), UniProt Q04771). The experiment in a line: ALK2 Cellular Assay (phospho SMAD1 HTRF, BMP-7 stimulated HeLa cells). Format: cell-based. To be noted: read-out: ALK2 Cellular Assay PSMAD. Put shortly:
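HeLa cells pre-treated with compound (highest final 3 μM) for 60 min at 37° C, then stimulated with 200 ng/ml BMP-7 for 30 min. Phospho-SMAD1 (S463/S465) quantified by HTRF after overnight room-temperature incubation.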
(In general: In TR-FRET formats the signal depends on donor and acceptor labels being close together.)

For the next assay, the target named is ALK2 (aa 147-end) (Homo sapiens (Human), UniProt Q04771). The experiment in a line: ALK2 HTRF Assay. Format: biochemical.
Chain of ALK2 (aa 147-end) (Q04771 147-509): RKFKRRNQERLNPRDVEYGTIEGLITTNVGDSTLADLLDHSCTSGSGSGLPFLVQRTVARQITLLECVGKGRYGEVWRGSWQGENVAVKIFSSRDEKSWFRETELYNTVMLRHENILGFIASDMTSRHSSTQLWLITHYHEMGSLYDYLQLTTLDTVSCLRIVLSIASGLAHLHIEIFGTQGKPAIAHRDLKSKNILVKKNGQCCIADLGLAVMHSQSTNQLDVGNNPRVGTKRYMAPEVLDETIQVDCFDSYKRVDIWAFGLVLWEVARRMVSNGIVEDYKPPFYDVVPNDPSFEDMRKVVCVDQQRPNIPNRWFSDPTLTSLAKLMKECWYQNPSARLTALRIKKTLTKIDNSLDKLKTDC
The next assay has as its target FGFR1 (UP) (Homo sapiens (Human), UniProt P11362). Nature of the assay: FGFR Enzymatic Assay, FGFR1 un-phosphorylated.
Setting [1] is: read-out: FGFR3 (UP) IC50, un-phosphorylated enzyme, ATP near or below Km.
Setting [2] is: read-out: FGFR2 (UP) IC50, un-phosphorylated enzyme, ATP near or below Km.
The mark [3] stands for this setting: read-out: ALK2 3 μM IC50, 3 uM ATP.
Setting [4] is: read-out: ALK2 100 μM IC50, 100 uM ATP.
Setting [5] is: read-out: FGFR1 (UP) IC50, un-phosphorylated enzyme, ATP near or below Km.
The mark [6] stands for this setting: HeLa cells, 200 ng/ml BMP-7, Phospho SMAD1 (S463/S465) HTRF.
[7] abbreviates: read-out: ALK2 1 mM IC50, 1 mM ATP.

Chain of ALK2 (Q04771 21-509): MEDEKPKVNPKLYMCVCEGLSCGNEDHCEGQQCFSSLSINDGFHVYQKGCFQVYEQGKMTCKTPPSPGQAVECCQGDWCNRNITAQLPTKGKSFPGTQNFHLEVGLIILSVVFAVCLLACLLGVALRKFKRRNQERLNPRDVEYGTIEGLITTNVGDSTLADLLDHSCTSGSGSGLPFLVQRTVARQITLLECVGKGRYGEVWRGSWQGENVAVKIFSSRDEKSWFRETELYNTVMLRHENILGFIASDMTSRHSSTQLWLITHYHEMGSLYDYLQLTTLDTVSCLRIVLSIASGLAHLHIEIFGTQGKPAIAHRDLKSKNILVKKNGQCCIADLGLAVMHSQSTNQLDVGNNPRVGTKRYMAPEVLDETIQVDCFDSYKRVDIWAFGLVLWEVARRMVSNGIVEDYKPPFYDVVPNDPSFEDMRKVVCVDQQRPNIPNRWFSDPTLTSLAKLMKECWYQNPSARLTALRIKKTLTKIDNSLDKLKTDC
Chain of FGFR3 (UP) (P22607 23-806): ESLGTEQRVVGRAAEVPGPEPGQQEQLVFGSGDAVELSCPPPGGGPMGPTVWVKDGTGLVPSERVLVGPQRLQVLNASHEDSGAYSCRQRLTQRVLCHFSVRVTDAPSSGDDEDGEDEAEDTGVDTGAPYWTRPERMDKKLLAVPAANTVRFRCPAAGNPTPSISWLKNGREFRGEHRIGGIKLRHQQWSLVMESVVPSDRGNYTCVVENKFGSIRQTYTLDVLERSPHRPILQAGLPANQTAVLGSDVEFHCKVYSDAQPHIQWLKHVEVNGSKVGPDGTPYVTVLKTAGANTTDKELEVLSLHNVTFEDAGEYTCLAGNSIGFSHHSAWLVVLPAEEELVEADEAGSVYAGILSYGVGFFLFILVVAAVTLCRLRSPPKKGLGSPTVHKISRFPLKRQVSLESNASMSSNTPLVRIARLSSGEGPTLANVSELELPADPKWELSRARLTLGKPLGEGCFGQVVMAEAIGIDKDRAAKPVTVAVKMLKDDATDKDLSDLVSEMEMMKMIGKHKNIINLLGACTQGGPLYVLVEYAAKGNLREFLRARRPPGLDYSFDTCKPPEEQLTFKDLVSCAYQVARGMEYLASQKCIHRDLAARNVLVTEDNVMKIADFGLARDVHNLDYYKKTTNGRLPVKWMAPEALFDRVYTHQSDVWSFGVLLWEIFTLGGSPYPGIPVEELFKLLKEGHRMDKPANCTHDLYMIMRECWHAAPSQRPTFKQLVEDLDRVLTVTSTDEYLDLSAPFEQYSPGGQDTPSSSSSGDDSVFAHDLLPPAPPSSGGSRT
Chain of FGFR2 (UP) (P21802 22-821): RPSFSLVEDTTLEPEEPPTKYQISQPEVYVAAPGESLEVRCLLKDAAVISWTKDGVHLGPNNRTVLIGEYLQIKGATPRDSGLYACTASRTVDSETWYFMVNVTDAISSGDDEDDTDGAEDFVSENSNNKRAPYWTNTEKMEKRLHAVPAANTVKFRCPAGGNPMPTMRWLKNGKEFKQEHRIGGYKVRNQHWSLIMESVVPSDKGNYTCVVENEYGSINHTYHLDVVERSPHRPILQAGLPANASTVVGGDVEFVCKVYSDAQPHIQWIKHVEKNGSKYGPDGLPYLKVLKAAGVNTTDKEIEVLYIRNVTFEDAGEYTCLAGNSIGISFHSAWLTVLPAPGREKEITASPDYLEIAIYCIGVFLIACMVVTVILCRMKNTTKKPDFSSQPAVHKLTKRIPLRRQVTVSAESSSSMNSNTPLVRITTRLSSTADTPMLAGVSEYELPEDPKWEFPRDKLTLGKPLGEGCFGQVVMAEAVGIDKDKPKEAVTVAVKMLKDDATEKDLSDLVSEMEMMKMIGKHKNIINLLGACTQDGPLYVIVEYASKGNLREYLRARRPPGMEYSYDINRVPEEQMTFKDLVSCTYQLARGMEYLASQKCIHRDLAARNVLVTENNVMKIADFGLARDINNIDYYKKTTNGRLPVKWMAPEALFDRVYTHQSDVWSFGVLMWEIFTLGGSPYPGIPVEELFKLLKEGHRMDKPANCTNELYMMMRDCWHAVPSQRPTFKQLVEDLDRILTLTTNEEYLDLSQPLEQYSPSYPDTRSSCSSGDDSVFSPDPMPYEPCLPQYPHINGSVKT
Chain of FGFR1 (UP) (P11362 22-822): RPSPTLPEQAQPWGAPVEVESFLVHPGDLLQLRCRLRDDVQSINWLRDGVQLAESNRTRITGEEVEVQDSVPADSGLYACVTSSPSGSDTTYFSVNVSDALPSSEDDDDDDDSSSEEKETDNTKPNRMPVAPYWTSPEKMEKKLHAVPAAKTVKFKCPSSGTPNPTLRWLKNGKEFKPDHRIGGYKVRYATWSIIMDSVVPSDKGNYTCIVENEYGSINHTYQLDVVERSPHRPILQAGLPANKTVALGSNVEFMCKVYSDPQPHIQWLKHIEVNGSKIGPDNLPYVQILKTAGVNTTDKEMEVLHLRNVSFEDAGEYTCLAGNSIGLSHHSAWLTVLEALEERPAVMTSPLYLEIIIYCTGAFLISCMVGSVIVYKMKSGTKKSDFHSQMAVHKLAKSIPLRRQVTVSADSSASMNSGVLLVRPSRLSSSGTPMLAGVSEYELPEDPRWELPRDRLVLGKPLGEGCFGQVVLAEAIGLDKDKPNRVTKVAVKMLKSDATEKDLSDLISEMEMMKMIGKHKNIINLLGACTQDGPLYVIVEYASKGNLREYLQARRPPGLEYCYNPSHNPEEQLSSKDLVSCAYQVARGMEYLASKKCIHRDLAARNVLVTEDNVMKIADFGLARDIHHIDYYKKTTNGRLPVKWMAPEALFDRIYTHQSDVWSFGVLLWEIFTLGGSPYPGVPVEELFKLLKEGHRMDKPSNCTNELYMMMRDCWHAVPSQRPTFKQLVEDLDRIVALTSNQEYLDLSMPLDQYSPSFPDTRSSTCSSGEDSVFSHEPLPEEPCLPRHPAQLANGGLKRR
Experimental for FGFR2 (UP): (§1) The inhibitor potency of the exemplified compounds was determined in an enzyme discontinuous assay that measures peptide phosphorylation using FRET measurements to detect product formation. Inhibitors were serially diluted in DMSO and a volume of 0.2 μL was transferred to the wells of a 384-well plate. For the isoforms of FGFR (−1, −2, −3 wild-type and mutant isoforms, −4) including phosphorylated (P) and un-phosphorylated (UP) proteins, a 5 μL/well volume of enzyme diluted in assay buffer (50 mM HEPES, 10 mM MgCl2, 1 mM EGTA, 0.01% Tween-20, 5 mM DTT, pH 7.5) was added to the plate and pre-incubated with inhibitor for 5 to 15 minutes at ambient temperature. Appropriate controls (enzyme blank and enzyme with no inhibitor) were included on the plate. The reaction was initiated by the addition of a 5 μL/well volume containing both biotinylated [sequence] […] The plate was allowed to equilibrate for −10 minutes at ambient temperature before scanning on a PheraStar plate reader (BMG Labtech) instrument.
(§2) Either GraphPad prism or XLfit was used to analyze the data. The IC50 values were derived by fitting the data to a four parameter logistic equation producing a sigmoidal dose-response curve with a variable Hill coefficient. Prism equation: Y=Bottom+(Top−Bottom)/(1+10^((LogIC50−X)*Hill slope)); XLfit equation: Y=(A+((B−A)/(1+((X/C)^D)))) where X is the logarithm of inhibitor concentration and Y is the response.
Experimental for FGFR3 (UP): as §1, §2

As to `C[C@@H]1CN(c2ccc(-c3n[nH]c4cnc(N5[C@@H]6CC[C@H]5CN(C(=O)N5CCCC5)C6)nc34)cn2)CCN1` [Example 14, ((1R,5S)-8-(3-(6-((R)-3-Methylpiperazin-1-yl)pyridin-3-yl)-1H-pyrazolo[4,3-d]pyrimidin-5-yl)-3,8-diazabicyclo[3.2.1]octan-3-yl)(pyrrolidin-1-yl)methanone], the IC50 at FGFR3 (UP) (setting [1]) is above 2000 nM; at FGFR2 (UP) (setting [2]), above 2000 nM; on ALK2 it was 100 to 500 nM; against ALK2 (aa 147-end) (ALK2 1 mM IC50, 1 mM ATP), 100 to 500 nM; on ALK2 (aa 147-end) (setting [3]) it was below 100 nM; on ALK2 (aa 147-end) (setting [4]) it was below 100 nM. In addition, at FGFR1 (UP) (setting [5]), the IC50 is above 2000 nM.
On to `CCOC(=O)N1C[C@@H](C)N(c2ncc3[nH]nc(-c4ccc(N5CCN[C@H](C)C5)nc4)c3n2)[C@@H](C)C1` [Example 11, Ethyl (3R,5S)-3,5-dimethyl-4-(3-(6-((R)-3-methylpiperazin-1-yl)pyridin-3-yl)-1H-pyrazolo[4,3-d]pyrimidin-5-yl)piperazine-1-carboxylate], for which the IC50 against FGFR3 (UP) is 500 to 2000 nM; on FGFR2 (UP) it was 500 to 2000 nM; on ALK2 (setting [6]), 100 to 500 nM; on ALK2 (aa 147-end) (setting [3]), below 100 nM; at ALK2 (aa 147-end) (setting [4]), below 100 nM; on ALK2 (aa 147-end) (setting [7]), below 100 nM. The same compound returned an IC50 on FGFR1 (UP) of 500 to 2000 nM.
For `C[C@@H]1CN(c2ccc(-c3n[nH]c4cnc(N5[C@@H]6CC[C@H]5CN(C(=O)C5CC5)C6)nc34)cn2)CCN1` [Example 13, Cyclopropyl((1R,5S)-8-(3-(6-((R)-3-methylpiperazin-1-yl)pyridin-3-yl)-1H-pyrazolo[4,3-d]pyrimidin-5-yl)-3,8-diazabicyclo[3.2.1]octan-3-yl)methanone], the IC50 is 100 to 500 nM on FGFR3 (UP); 100 to 500 nM against FGFR2 (UP); 100 to 500 nM at ALK2; 100 to 500 nM on ALK2 (aa 147-end) (ALK2 1 mM IC50, 1 mM ATP); below 100 nM at ALK2 (aa 147-end) (setting [3]); below 100 nM on ALK2 (aa 147-end) (setting [4]). The compound further yielded an IC50 against FGFR1 (UP) of 500 to 2000 nM.
On to `COC(=O)N1C[C@@H](C)N(c2ncc3[nH]nc(-c4ccc(N5CCO[C@H](C)C5)nc4)c3n2)[C@@H](C)C1` [Example 32, Methyl (3R,5S)-3,5-dimethyl-4-(3-(6-((R)-2-methylmorpholino)pyridin-3-yl)-1H-pyrazolo[4,3-d]pyrimidin-5-yl)piperazine-1-carboxylate], for which the IC50 against FGFR3 (UP) was 100 to 500 nM; on FGFR2 (UP) it was 500 to 2000 nM; on ALK2 (setting [6]) it was 100 to 500 nM; against ALK2 (aa 147-end) (ALK2 1 mM IC50, 1 mM ATP), 100 to 500 nM; on ALK2 (aa 147-end) (setting [3]), below 100 nM; on ALK2 (aa 147-end) (setting [4]), below 100 nM. Moreover, the IC50 on FGFR1 (UP) (setting [5]) was above 2000 nM.
As to `COC(=O)N1C[C@@H](C)N(c2ncc3[nH]nc(-c4ccc(N5CCN(C)[C@H](C)C5)nc4)c3n2)[C@@H](C)C1` [Example 33, Methyl (3R,5S)-4-(3-(6-((R)-3,4-dimethylpiperazin-1-yl)pyridin-3-yl)-1H-pyrazolo[4,3-d]pyrimidin-5-yl)-3,5-dimethylpiperazine-1-carboxylate], the IC50 on FGFR3 (UP) (setting [1]) is below 100 nM; on FGFR2 (UP), 100 to 500 nM; at ALK2 (setting [6]), below 100 nM; at ALK2 (aa 147-end) (setting [3]) it was below 100 nM; at ALK2 (aa 147-end) (setting [4]), below 100 nM; at ALK2 (aa 147-end) (setting [7]), below 100 nM. This compound gave an IC50 against FGFR1 (UP) of 100 to 500 nM.
As for `C[C@@H]1CN(c2ccc(-c3n[nH]c4cnc(N5C[C@@H]6C[C@H]5CN6C(=O)N5CCCC5)nc34)cn2)CCN1` [Example 21, ((1S,4S)-5-(3-(6-((R)-3-Methylpiperazin-1-yl)pyridin-3-yl)-1H-pyrazolo[4,3-d]pyrimidin-5-yl)-2,5-diazabicyclo[2.2.1]heptan-2-yl)(pyrrolidin-1-yl)methanone], the IC50 on FGFR3 (UP) (setting [1]) was above 2000 nM; at FGFR2 (UP) (setting [2]), above 2000 nM; at ALK2 (setting [6]), 500 to 2000 nM; at ALK2 (aa 147-end) (ALK2 1 mM IC50, 1 mM ATP), 100 to 500 nM; at ALK2 (aa 147-end) (setting [3]), below 100 nM; on ALK2 (aa 147-end) (setting [4]), below 100 nM. At FGFR1 (UP) (setting [5]), the IC50 was above 2000 nM.
